Common to all, as to assay: biochemical
What all share (type): biochemical

The target in test [1] is 363 human kinases (including Aurora A/B/C) (Homo sapiens, UniProt P37023). Conditions: ALK1/ACVRL1, [ATP] 100 µM; for remaining activity at 0.1 µM: 100 nM; for remaining activity at 0.1 µM / remaining activity at 0.5 µM: read-out: % Enzyme Activity (relative to DMSO controls).
Description: (§1) However, the Aurora A/B selectivity ratios derived from our in vitro and in vivo data can be compared to prioritize inhibitors.
The target of test [2] is 363 human kinases (including Aurora A/B/C) (Homo sapiens, UniProt Q05655). The note with it: PKCd; for remaining activity at 0.1 µM: 100 nM; for remaining activity at 0.1 µM / remaining activity at 0.5 µM: read-out: % Enzyme Activity (relative to DMSO controls).
Chain of 363 human kinases (including Aurora A/B/C) (Homo sapiens, UniProt Q05655) (Q05655 whole entry): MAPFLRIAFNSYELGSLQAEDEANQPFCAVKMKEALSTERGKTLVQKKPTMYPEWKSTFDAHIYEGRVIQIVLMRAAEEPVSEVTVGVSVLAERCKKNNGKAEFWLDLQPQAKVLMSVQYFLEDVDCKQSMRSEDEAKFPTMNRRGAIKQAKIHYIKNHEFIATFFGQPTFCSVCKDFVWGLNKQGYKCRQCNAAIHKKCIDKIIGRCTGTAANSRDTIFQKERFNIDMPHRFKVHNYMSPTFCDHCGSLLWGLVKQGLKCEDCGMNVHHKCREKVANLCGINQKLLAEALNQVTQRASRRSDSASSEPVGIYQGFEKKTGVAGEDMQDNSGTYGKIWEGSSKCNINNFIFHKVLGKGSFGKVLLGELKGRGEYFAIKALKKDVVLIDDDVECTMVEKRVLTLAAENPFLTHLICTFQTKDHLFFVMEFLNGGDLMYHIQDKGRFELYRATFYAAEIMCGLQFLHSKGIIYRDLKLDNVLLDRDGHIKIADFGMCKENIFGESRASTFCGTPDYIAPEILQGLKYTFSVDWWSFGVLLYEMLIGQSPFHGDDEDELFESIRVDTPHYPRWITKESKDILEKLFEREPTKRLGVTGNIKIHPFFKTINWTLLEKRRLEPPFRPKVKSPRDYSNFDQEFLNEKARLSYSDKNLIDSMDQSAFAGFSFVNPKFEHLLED
Description: as §1
Test [3] has as its target 363 human kinases (including Aurora A/B/C) (Homo sapiens, UniProt P07332). The note with it: FES/FPS, [ATP] 50 µM; for remaining activity at 0.1 µM: 100 nM; for remaining activity at 0.1 µM / remaining activity at 0.5 µM: read-out: % Enzyme Activity (relative to DMSO controls).
Description: as §1
Test [4] concerns the target 363 human kinases (including Aurora A/B/C) (Homo sapiens, UniProt Q00534). Conditions: for remaining activity at 0.1 µM: 100 nM; for remaining activity at 0.1 µM / remaining activity at 0.5 µM: read-out: % Enzyme Activity (relative to DMSO controls); for remaining activity at 0.5 µM / % Enzyme Activity (relative to DMSO controls): 500 nM.
Description: as §1
The target in test [5] is 363 human kinases (including Aurora A/B/C) (Homo sapiens, UniProt Q76MJ5). The note with it: ERN2/IRE2, [ATP] 100 µM; for remaining activity at 0.1 µM: 100 nM; for remaining activity at 0.1 µM / remaining activity at 0.5 µM: read-out: % Enzyme Activity (relative to DMSO controls).
Chain of 363 human kinases (including Aurora A/B/C) (Homo sapiens, UniProt Q76MJ5) (Q76MJ5 35-926): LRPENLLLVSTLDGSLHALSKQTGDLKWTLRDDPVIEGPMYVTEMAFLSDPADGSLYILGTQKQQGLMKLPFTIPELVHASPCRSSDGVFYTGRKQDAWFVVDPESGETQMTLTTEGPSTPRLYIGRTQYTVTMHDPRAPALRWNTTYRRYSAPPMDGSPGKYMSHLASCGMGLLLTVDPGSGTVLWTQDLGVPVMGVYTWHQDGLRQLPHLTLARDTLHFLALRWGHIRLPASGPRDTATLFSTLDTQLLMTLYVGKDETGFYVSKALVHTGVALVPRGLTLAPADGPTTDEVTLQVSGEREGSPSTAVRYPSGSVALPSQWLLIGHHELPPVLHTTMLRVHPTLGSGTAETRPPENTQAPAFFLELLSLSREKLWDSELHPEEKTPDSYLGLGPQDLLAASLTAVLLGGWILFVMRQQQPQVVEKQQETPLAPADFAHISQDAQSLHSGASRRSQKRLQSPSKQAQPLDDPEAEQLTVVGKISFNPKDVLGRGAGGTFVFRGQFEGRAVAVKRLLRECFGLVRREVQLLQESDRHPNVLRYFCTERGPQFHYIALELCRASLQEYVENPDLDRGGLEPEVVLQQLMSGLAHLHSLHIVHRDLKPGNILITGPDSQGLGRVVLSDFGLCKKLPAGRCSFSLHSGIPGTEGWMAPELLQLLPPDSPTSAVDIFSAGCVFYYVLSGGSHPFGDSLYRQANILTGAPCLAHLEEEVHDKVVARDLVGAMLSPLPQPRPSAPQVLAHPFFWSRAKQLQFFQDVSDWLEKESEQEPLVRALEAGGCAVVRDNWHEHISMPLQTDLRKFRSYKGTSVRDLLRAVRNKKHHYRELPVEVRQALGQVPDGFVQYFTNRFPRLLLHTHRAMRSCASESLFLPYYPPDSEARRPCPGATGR
Description: as §1
For test [6], the target named is T1, 363 human kinases (including Aurora A/B/C) (Homo sapiens, UniProt Q13237).
T1 sequence (Q13237 1-762): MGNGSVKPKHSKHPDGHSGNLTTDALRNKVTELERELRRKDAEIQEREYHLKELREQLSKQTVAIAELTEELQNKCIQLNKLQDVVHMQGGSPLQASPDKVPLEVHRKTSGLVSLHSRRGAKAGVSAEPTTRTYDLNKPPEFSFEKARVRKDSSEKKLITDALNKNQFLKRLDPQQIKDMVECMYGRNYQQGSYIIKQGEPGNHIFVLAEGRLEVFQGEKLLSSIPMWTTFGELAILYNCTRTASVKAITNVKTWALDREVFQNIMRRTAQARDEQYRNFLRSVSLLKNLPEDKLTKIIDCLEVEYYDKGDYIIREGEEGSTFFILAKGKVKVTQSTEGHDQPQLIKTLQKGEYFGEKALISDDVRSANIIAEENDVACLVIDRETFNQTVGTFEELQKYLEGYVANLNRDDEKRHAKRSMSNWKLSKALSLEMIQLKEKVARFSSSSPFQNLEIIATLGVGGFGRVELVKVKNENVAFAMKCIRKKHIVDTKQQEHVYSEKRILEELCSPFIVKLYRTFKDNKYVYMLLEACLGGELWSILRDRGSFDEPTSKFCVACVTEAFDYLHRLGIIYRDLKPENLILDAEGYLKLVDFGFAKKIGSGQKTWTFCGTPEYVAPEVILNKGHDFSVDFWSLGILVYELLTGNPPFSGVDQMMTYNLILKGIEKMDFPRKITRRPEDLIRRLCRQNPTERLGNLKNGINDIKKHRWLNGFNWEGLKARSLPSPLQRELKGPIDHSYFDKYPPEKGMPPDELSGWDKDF
Conditions: PKG2/PRKG2; for remaining activity at 0.1 µM: 100 nM; for remaining activity at 0.1 µM / remaining activity at 0.5 µM: read-out: % Enzyme Activity (relative to DMSO controls).
Description: as §1

Test [7] concerns the target T2, 363 human kinases (including Aurora A/B/C) (Homo sapiens, UniProt Q8TD08).
T2 sequence (Q8TD08 1-544): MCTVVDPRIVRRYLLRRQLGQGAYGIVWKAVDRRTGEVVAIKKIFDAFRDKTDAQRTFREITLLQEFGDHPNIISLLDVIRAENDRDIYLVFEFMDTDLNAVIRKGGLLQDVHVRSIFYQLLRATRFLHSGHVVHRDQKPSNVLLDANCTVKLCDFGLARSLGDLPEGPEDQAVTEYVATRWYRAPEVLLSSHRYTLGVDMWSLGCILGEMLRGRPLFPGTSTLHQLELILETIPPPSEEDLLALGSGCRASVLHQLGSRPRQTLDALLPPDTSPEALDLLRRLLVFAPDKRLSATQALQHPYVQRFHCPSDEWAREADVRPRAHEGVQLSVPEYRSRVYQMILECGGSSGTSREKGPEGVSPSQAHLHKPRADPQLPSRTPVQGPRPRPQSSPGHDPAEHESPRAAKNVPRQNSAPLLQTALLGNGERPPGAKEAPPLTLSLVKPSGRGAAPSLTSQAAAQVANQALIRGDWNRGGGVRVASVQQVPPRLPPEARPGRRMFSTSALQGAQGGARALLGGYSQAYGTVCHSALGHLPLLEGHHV
Conditions: ERK7/MAPK15, [ATP] 10 µM; for remaining activity at 0.1 µM: 100 nM; for remaining activity at 0.1 µM / remaining activity at 0.5 µM: read-out: % Enzyme Activity (relative to DMSO controls).
Description: as §1

Test [8] addresses 363 human kinases (including Aurora A/B/C) (Homo sapiens, UniProt Q9P0L2). The note with it: MARK1; for remaining activity at 0.1 µM: 100 nM; for remaining activity at 0.1 µM / remaining activity at 0.5 µM: read-out: % Enzyme Activity (relative to DMSO controls).
Description: as §1
In test [9] the target is T3, 363 human kinases (including Aurora A/B/C) (Homo sapiens, UniProt P25098).
T3 sequence (P25098 1-689): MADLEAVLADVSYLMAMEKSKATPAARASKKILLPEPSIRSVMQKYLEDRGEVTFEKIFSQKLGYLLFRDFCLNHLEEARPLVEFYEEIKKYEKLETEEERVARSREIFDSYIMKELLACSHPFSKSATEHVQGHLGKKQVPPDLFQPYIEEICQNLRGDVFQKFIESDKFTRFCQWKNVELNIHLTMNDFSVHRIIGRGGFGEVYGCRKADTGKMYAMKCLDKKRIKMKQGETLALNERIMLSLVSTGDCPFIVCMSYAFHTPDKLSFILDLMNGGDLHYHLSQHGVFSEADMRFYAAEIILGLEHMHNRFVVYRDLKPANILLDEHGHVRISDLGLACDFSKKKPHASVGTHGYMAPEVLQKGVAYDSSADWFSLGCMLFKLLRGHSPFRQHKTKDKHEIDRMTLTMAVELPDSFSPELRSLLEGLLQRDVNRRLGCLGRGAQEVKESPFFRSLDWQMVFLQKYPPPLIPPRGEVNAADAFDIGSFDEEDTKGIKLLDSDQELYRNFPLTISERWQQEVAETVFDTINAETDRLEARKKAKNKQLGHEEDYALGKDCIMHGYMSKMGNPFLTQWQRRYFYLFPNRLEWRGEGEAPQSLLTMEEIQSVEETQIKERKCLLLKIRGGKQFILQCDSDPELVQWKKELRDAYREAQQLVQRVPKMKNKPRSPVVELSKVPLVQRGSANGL
The note with it: GRK2; for remaining activity at 0.1 µM: 100 nM; for remaining activity at 0.1 µM / remaining activity at 0.5 µM: read-out: % Enzyme Activity (relative to DMSO controls).
Description: as §1

Experimental findings from paper PMC4685510, “A Cell Biologist’s Field Guide to Aurora Kinase Inhibitors” (Frontiers in Oncology, 2015) are described below.

Read-outs that look alike come from different tables or passages of the source.

Chain of 363 human kinases (including Aurora A/B/C) (Homo sapiens, UniProt Q9P0L2) (Q9P0L2 whole entry): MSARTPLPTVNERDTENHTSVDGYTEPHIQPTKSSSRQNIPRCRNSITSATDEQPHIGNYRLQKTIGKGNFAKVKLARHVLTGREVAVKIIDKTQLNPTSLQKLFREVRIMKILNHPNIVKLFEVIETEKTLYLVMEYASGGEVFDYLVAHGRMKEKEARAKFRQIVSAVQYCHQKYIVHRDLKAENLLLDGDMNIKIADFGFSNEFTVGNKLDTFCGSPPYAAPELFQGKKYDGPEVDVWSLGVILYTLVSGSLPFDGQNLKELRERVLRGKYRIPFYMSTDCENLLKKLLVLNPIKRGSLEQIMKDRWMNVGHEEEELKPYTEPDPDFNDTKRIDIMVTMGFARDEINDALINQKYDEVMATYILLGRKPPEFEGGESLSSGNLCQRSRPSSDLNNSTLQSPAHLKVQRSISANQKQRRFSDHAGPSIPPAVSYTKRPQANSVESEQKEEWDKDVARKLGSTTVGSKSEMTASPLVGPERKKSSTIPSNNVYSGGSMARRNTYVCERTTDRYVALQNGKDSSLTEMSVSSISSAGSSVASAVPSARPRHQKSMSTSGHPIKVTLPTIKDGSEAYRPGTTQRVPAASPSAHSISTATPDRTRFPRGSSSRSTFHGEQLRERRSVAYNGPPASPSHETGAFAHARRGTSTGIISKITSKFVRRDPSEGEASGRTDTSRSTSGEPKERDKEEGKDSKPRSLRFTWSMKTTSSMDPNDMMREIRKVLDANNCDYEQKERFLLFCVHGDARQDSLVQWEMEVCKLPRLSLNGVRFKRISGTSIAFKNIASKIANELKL
Chain of 363 human kinases (including Aurora A/B/C) (Homo sapiens, UniProt P07332) (P07332 whole entry): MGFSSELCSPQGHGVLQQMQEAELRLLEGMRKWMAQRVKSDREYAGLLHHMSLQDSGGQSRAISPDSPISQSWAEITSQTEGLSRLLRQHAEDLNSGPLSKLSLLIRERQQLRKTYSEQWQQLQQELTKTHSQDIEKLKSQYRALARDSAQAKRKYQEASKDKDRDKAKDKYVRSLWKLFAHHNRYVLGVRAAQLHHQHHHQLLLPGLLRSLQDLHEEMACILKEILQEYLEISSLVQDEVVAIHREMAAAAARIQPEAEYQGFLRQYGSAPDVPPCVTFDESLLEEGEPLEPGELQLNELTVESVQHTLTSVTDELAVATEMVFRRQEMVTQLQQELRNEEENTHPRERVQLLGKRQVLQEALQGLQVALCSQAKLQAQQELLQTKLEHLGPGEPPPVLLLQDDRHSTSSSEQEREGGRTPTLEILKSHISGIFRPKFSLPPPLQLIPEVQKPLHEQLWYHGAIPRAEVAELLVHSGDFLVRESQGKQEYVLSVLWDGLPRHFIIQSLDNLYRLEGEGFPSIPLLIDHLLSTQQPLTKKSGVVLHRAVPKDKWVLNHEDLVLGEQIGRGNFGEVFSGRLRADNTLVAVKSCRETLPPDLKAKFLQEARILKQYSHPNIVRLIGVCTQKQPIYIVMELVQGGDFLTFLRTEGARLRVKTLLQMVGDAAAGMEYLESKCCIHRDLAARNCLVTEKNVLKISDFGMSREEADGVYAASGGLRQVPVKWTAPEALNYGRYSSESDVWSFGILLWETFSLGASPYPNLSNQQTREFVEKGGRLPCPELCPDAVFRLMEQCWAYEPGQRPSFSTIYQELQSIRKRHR
Chain of 363 human kinases (including Aurora A/B/C) (Homo sapiens, UniProt P37023) (P37023 22-503): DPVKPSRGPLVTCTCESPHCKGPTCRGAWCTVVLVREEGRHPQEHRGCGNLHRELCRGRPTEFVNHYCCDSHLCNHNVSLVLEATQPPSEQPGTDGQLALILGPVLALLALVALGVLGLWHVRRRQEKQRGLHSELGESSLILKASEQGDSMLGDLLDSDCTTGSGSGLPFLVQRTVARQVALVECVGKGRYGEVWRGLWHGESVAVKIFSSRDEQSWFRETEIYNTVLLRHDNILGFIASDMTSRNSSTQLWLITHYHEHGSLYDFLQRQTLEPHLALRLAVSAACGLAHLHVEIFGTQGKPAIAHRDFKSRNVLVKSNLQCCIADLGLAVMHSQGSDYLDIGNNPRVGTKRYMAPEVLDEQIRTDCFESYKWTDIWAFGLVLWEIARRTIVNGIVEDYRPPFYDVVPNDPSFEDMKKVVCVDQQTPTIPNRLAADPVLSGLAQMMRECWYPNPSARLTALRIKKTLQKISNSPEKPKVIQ
Chain of 363 human kinases (including Aurora A/B/C) (Homo sapiens, UniProt Q00534) (Q00534 whole entry): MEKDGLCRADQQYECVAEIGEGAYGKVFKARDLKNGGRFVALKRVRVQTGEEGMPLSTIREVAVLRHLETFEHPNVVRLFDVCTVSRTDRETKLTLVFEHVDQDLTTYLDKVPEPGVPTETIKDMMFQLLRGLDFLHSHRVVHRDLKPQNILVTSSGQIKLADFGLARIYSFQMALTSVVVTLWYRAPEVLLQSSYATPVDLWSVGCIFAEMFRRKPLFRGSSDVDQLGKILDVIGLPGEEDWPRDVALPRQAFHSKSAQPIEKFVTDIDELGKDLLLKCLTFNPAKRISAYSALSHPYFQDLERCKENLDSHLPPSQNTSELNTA

For the molecule `CCn1cc(-c2ccnc3[nH]c(-c4cccc(CN(C)C)c4)cc23)c(-c2ccc(NC(=O)N(C)C)cc2)n1` [GSK1070916], the remaining activity at 0.1 µM turned out to be 98.2% in [1]; 201% in [2]; 90% in [3]; 98.8% in test [4] (CDK6/cyclin D1, [ATP] 20 µM); 102% in [4] (CDK6/cyclin D3, [ATP] 30 µM); 87.3% in [5]. The remaining activity at 0.1 µM stood at 97.2% in test [6], 102% in test [7], 93% in test [8] and 101% in [9].
As for `O=C(O)[C@]1(Cc2cccc(Nc3nccs3)n2)CC[C@@H](Oc2cccc(Cl)c2F)CC1` [MK-5108], the remaining activity at 0.1 µM was determined as 51.3% in [1]; 97.8% in [2]; 96% in [3]; 90.3% in test [4] (CDK6/cyclin D1, [ATP] 20 µM); 89.7% in test [4] (CDK6/cyclin D3, [ATP] 30 µM); 97% in test [5]. In addition, the remaining activity at 0.1 µM in [6] was determined as 106%; in test [7], 83.7%; in test [8], 117%; in [9], 102%. The remaining activity at 0.5 µM is 36.5% in [1] (500 nM); 201% in test [2] (500 nM); 73.7% in test [3] (500 nM); 96.2% in test [4] (CDK6/cyclin D1, [ATP] 20 µM); 95.1% in [4] (CDK6/cyclin D3, [ATP] 30 µM); 87.6% in test [5] (500 nM). Moreover, the remaining activity at 0.5 µM in test [6] (500 nM) stood at 97.3%; in test [7] (500 nM) it was 64.2%; in test [8] (500 nM), 98.6%; in [9] (500 nM), 106%.
In the case of `O=C(c1cccc(Cl)c1F)N1CCN(Cc2cccc(Nc3nccs3)n2)CC1` [MK-8745], the “% Enzyme Activity (relative to DMSO controls)” value is on record as 71.54% in test [1] (500 nM); 130.26% in test [2] (500 nM); 85.63% in test [3] (500 nM); 94.81% in test [4] (CDK6/cyclin D1, [ATP] 20 µM); 93.71% in test [4] (CDK6/cyclin D3, [ATP] 30 µM); 93.54% in [5] (500 nM). Besides, the “% Enzyme Activity (relative to DMSO controls)” value was 95.25% in [6] (500 nM), 85.14% in test [7] (500 nM), 96.30% in test [8] (500 nM) and 103.92% in test [9] (500 nM). The remaining activity at 0.5 µM worked out at 75.1% in test [1] (500 nM); 141% in [2] (500 nM); 86% in test [3] (500 nM); 96.4% in test [4] (CDK6/cyclin D1, [ATP] 20 µM); 95.7% in test [4] (CDK6/cyclin D3, [ATP] 30 µM); 94.5% in test [5] (500 nM). Moreover, the remaining activity at 0.5 µM in test [6] (500 nM) amounted to 95.3%; in test [7] (500 nM), 92.2%; in test [8] (500 nM) it was 96.5%; in test [9] (500 nM), 105%.
